In brackets after ≈: the same amount, converted by molar mass. Activity calls are given as the source filed them. No cut-off for these calls is given here.
Experiments:
[1] = Kinetic solubility of the compound at pH 7.4; type: physicochemical; settings: buffer; for solubility kinetic: read-out: Kinetic_solubility
[2] = Cytotoxicity against human HeLa cells after 72 hrs by methylene blue staining; type: cell-based
[3] = Antiproliferative activity against human K562 cells after 72 hrs by electronic cell analysis; type: cell-based
[4] = Antiproliferative activity against human HUVEC cells after 72 hrs by methylene blue staining; type: cell-based
[5] = Cytotoxicity against human HepG2 cells after 24 hrs by MTT assay; type: cell-based
[6] = Cytotoxicity against human HEK293 cells after 24 hrs by MTT assay; type: cell-based
Liver microsomes = assay: Metabolic stability in human liver microsomes; type: ADME, Microsome
Liver = assay: Metabolic stability in mouse liver microsomes; type: ADME, Microsome
Plasma [7] = assay: Metabolic stability in human plasma; type: ADME, cell-free
Plasma [8] = assay: Metabolic stability in mouse plasma; type: ADME, cell-free
[9] = Chemical stability in buffer; type: physicochemical
[10] = tested on: Mycolicibacterium smegmatis; assay: Antimycobacterial activity against Mycobacterium smegmatis 700084 after 48 hrs by broth microdilution assay; type: functional; settings: Mycolicibacterium smegmatis, 700084, 48 h
[11] = tested on: Mycolicibacterium fortuitum; assay: Antimycobacterial activity against Mycobacterium fortuitum B; type: functional
[12] = Therapeutic index, ratio of GI50 for human K562 cells to MIC for Mycobacterium smegmatis 700084; type: cell-based; settings: read-out: TI
[13] = Therapeutic index, ratio of GI50 for human HUVEC cells to MIC for Mycobacterium smegmatis 700084; type: cell-based; settings: read-out: TI
[14] = Therapeutic index, ratio of CC50 for human HeLa cells to MIC for Mycobacterium smegmatis 700084; type: cell-based; settings: read-out: TI
[15] = tested on: Mycolicibacterium smegmatis; assay: Ratio of MIC for Mycobacterium smegmatis 700084 in […] to MIC for Mycobacterium smegmatis 700084 in MHB medium; type: functional
[16] = tested on: Mycobacterium tuberculosis; assay: Antimycobacterial activity against Mycobacterium tuberculosis H37Rv expressing GFP; type: functional
Mycolicibacterium aurum = assay: Antimycobacterial activity against Mycobacterium aurum SB66; type: functional, organism-based
[17] = tested on: Mycobacterium tuberculosis; assay: Ratio of isoniazid MIC to compound MIC for Mycobacterium tuberculosis H37Rv; type: functional

Compound | CC50 at 72 h [2] [µM] | GI50 at 72 h [3] [µM] | GI50 at 72 h [4] [µM] | CC50 at 24 h [5] [µM] | CC50 at 24 h [6] [µM] | Stability (Liver microsomes) [%] | Stability (Liver) [%] | Stability (Plasma [7]) [%] | Stability (Plasma [8]) [%] | Stability [9] [%] | MIC [10] [µg/mL] | MIC [11] [µg/mL] | solubility kinetic [1] [µM] | other results
CN(C)C(=O)C1CCN(c2nc(=O)c3cc(C(F)(F)F)cc([N+](=O)[O-])c3s2)CC1 | – | – | – | – | – | – | – | – | – | – | – | – | – | Kinetic_solubility [1]: soluble
COC(=O)C1CN(c2nc(=O)c3cc(C(F)(F)F)cc([N+](=O)[O-])c3s2)CCC12OC[C@H](C)O2 (some centres undefined) | 36 | 22 | 16 | > 10 | > 10 | 81 | 29 | 51 | 56 | 98 | 0.015 (≈ 0.0306 µM) | 0.0125 (≈ 0.0255 µM) | – | –
CN(C(=O)CN1CCN(c2nc(=O)c3cc(C(F)(F)F)cc([N+](=O)[O-])c3s2)CC1)c1ccccc1 | 39 | 30 | 18 | > 10 | > 10 | 13 | 2 | 95 | 115 | 78 | 0.015 (≈ 0.0296 µM) | 0.0125 (≈ 0.0246 µM) | 11.9 (≈ 6.04 µg/mL) | –
CN(Cc1ccoc1)c1nc(=O)c2cc(C(F)(F)F)cc([N+](=O)[O-])c2s1 | – | – | – | – | – | – | – | – | – | – | – | – | – | Kinetic_solubility [1]: soluble
O=c1nc(N2CCC(c3ccccc3)CC2)sc2c([N+](=O)[O-])cc(C(F)(F)F)cc12 | > 50 | > 50 | > 50 | > 10 | > 10 | 120 | 75 | 96 | 71 | 82 | 0.004 (≈ 0.00919 µM) | 0.0125 (≈ 0.0287 µM) | 0.06 (≈ 0.0261 µg/mL) | selectivity ratio [12]: > 12500; selectivity ratio [13]: > 12500; selectivity ratio [14]: > 12500; Ratio [15]: 3
CN(C)c1ccc(CN(C)c2nc(=O)c3cc(C(F)(F)F)cc([N+](=O)[O-])c3s2)cc1 | > 50 | > 50 | > 50 | > 10 | > 10 | 6 | 8 | 90 | 104 | 95 | 0.001 (≈ 0.00228 µM) | 0.00625 (≈ 0.0143 µM) | – | selectivity ratio [12]: > 50000; selectivity ratio [13]: > 50000; selectivity ratio [14]: > 50000
CN(c1nc(=O)c2cc(C(F)(F)F)cc([N+](=O)[O-])c2s1)[C@H]1CCN(Cc2ccccc2)C1 | 38 | 30 | 18 | > 10 | > 10 | 6 | 7 | 92 | 114 | 96 | 0.004 (≈ 0.00861 µM) | – | 2.97 (≈ 1.38 µg/mL) | –
O=c1nc(NCc2ccco2)sc2c([N+](=O)[O-])cc(C(F)(F)F)cc12 | – | – | – | – | – | – | – | – | – | – | – | – | 1.63 (≈ 0.605 µg/mL) | –
COC(=O)[C@@H]1OC2(CCN(c3nc(=O)c4cc(C(F)(F)F)cc([N+](=O)[O-])c4s3)CC2)O[C@H]1c1ccccc1 | > 50 | > 50 | > 50 | > 10 | > 10 | – | – | 90 | 88 | 82 | 0.015 (≈ 0.0272 µM) | 0.00625 (≈ 0.0113 µM) | – | –
CCN(CCN(C)C)c1nc(=O)c2cc(C(F)(F)F)cc([N+](=O)[O-])c2s1 | – | – | – | – | – | – | – | – | – | – | – | – | 10.6 (≈ 4.14 µg/mL) | –
O=c1nc(N2CCN(c3nccs3)CC2)sc2c([N+](=O)[O-])cc(C(F)(F)F)cc12 | – | – | – | > 10 | > 10 | 42 | 13 | 99 | 111 | 98 | 0.25 (≈ 0.564 µM) | 0.025 (≈ 0.0564 µM) | – | –
O=C(c1ccoc1)N1CCN(c2nc(=O)c3cc(C(F)(F)F)cc([N+](=O)[O-])c3s2)CC1 | – | – | – | – | – | – | – | – | – | – | – | – | 21.8 (≈ 9.91 µg/mL) | –
C[C@H]1COC2(CCN(c3nc(=O)c4cc(C(F)(F)F)cc([N+](=O)[O-])c4s3)CC2)O1 [BTZ-043] | > 50 | 11 | 8 | > 10 | > 10 | 98 | 45 | 107 | 97 | 98 | 0.008 (≈ 0.0185 µM) | 0.00156 (≈ 0.00362 µM) | 6.8 (≈ 2.93 µg/mL) | MIC [16]: 0.001 µg/mL (≈ 0.00232 µM); Activity (Mycolicibacterium aurum): inactive; selectivity ratio [12]: 1190; selectivity ratio [13]: 1190; selectivity ratio [14]: > 6250; Ratio [17]: 20
O=c1nc(NCc2ccc3c(c2)OCCO3)sc2c([N+](=O)[O-])cc(C(F)(F)F)cc12 | 41 | 37 | 20 | > 10 | > 10 | 43 | 32 | 86 | 114 | 91 | 0.004 (≈ 0.0091 µM) | 0.012 (≈ 0.0273 µM) | – | –
CCCOCC1COC2(CCN(c3nc(=O)c4cc(C(F)(F)F)cc([N+](=O)[O-])c4s3)CC2)O1 (centres undefined) | 43 | > 50 | > 50 | > 10 | > 10 | 6 | 9 | 98 | 103 | 99 | 0.004 (≈ 0.00817 µM) | 0.0031 (≈ 0.00633 µM) | – | –
O=c1nc(N2CCC(F)(F)CC2)sc2c([N+](=O)[O-])cc(C(F)(F)F)cc12 | – | – | – | > 10 | > 10 | 61 | 80 | 64 | 92 | 101 | 0.25 (≈ 0.632 µM) | > 0.1 | 8.1 (≈ 3.2 µg/mL) | –
Cc1ccc(CNc2nc(=O)c3cc(C(F)(F)F)cc([N+](=O)[O-])c3s2)o1 | – | – | – | – | – | – | – | – | – | – | – | – | 1.82 (≈ 0.701 µg/mL) | –
Cc1ccc(CNc2nc(=O)c3cc(C(F)(F)F)cc([N+](=O)[O-])c3s2)n1C | 48 | 21 | 17 | > 10 | > 10 | 28 | 37 | 108 | 93 | 14 | 0.125 (≈ 0.314 µM) | 0.05 (≈ 0.126 µM) | – | –

— ChEMBL document CHEMBL2177104, “Identification of antitubercular benzothiazinone compounds by ligand-based design” (J Med Chem, 2012)
